According to patent publication US11357779B2 (G1 Therapeutics, Inc., priority 2018, dated 2022):
Read-outs that look alike come from different tables or passages of the source.

Experiment: Noncompartmental pharmacokinetic parameters (Cmax, Tmax, AUC, Racc) in QD and BID cohorts of Form B
Assay type: in vivo, human
Conditions: human, plasma, oral
Procedure: Analysis of plasma concentration versus time data for calculation of standard pharmacokinetic (PK) parameters following oral administration was conducted using Phoenix WinNonlin version 6.3 using actual blood sampling times.
The following pharmacokinetic parameters were calculated from the concentration versus time data obtained in Example 1 for each of the above QD (200 mg, 300 mg, 400 mg, 500 mg, or 650 mg dosed) and BID (100 mg, 150 mg, or 200 mg doses) Form B of Compound II dosage cohorts: • Cmax—the observed peak plasma concentration determined from the plasma concentration versus time data obtained on Day 1 and Day 29, as applicable; • Tmax—the time to reach the observed peak plasma concentration from the plasma concentration versus time data obtained on Day 1 and Day 29, as applicable; • AUC—area under the plasma concentration versus time curve during a dosing interval on Day 1 and Day 29, as applicable; and • Racc—accumulation ratio calculated as AUCDay 29/AUCDay 1.

CC(C)N1CCN(c2ccc(Nc3ncc4cc5n(c4n3)C3(CCCCC3)CNC5=O)nc2)CC1 [Compound I, 2′-((5-(4-isopropylpiperazin-1-yl)pyridin-2-yl)amino)-7′,8′-dihydro-6′H-spiro[cyclohexane-1,9′-pyrazino[1′,2′:1,5]pyrrolo[2,3-d]pyrimidin]-6′-one]
AUC(0-t) (100 mg, Cohort 6, 100 mg BID of Form B, Day 1, read-out: AUClast, Mean): 59.7 ng·h/mL | AUC(0-t) (100 mg, Cohort 6, 100 mg BID of Form B, Day 1, read-out: AUClast, Median): 53.1 ng·h/mL | Cmax (100 mg, Cohort 6, 100 mg BID of Form B, Day 1, read-out: Cmax, Mean): 10.2 ng/mL | Cmax (100 mg, Cohort 6, 100 mg BID of Form B, Day 1, read-out: Cmax, Median): 8.95 ng/mL | Tmax (100 mg, Cohort 6, 100 mg BID of Form B, Day 1, read-out: Tmax, Mean): 3.17 h | Tmax (100 mg, Cohort 6, 100 mg BID of Form B, Day 1, read-out: Tmax, Median): 3 h | AUC(0-t) (100 mg, Compound I, 100 mg BID of Form B, Cohort 6, Day 29, read-out: AUClast (Mean)): 101 ng·h/mL | AUC(0-t) (100 mg, Compound I, 100 mg BID of Form B, Cohort 6, Day 29, read-out: AUClast (Median)): 88.2 ng·h/mL | Cmax (100 mg, Compound I, 100 mg BID of Form B, Cohort 6, Day 29, read-out: Cmax (Mean)): 12.3 ng/mL | Cmax (100 mg, Compound I, 100 mg BID of Form B, Cohort 6, Day 29, read-out: Cmax (Median)): 11.8 ng/mL | Tmax (100 mg, Compound I, 100 mg BID of Form B, Cohort 6, Day 29, read-out: Tmax (Mean)): 4.4 h | Tmax (100 mg, Compound I, 100 mg BID of Form B, Cohort 6, Day 29, read-out: Tmax (Median)): 3 h | AUC(0-t) (150 mg, Compound I, 150 mg BID of Form B, Cohort 7, Day 1, read-out: AUClast (Mean)): 130 ng·h/mL | AUC(0-t) (150 mg, Compound I, 150 mg BID of Form B, Cohort 7, Day 1, read-out: AUClast (Median)): 141 ng·h/mL | Cmax (150 mg, Compound I, 150 mg BID of Form B, Cohort 7, Day 1, read-out: Cmax (Mean)): 21.7 ng/mL | Cmax (150 mg, Compound I, 150 mg BID of Form B, Cohort 7, Day 1, read-out: Cmax (Median)): 24.6 ng/mL | Tmax (150 mg, Compound I, 150 mg BID of Form B, Cohort 7, Day 1, read-out: Tmax (Mean)): 3.67 h | Tmax (150 mg, Compound I, 150 mg BID of Form B, Cohort 7, Day 1, read-out: Tmax (Median)): 4 h | AUC(0-t) (150 mg, Compound I, 150 mg BID of Form B, Cohort 7, Day 29, read-out: AUClast (Mean)): 455 ng·h/mL | AUC(0-t) (150 mg, Compound I, 150 mg BID of Form B, Cohort 7, Day 29, read-out: AUClast (Median)): 334 ng·h/mL | Cmax (150 mg, Compound I, 150 mg BID of Form B, Cohort 7, Day 29, read-out: Cmax (Mean)): 50.2 ng/mL | Cmax (150 mg, Compound I, 150 mg BID of Form B, Cohort 7, Day 29, read-out: Cmax (Median)): 36.9 ng/mL | Tmax (150 mg, Compound I, 150 mg BID of Form B, Cohort 7, Day 29, read-out: Tmax (Mean)): 4 h | Tmax (150 mg, Compound I, 150 mg BID of Form B, Cohort 7, Day 29, read-out: Tmax (Median)): 4 h | AUC(0-t) (200 mg, Cohort 1, 200 mg QD of Form B, Day 1, read-out: AUClast, Mean): 215 ng·h/mL | AUC(0-t) (200 mg, Cohort 1, 200 mg QD of Form B, Day 1, read-out: AUClast, Median): 232 ng·h/mL | Cmax (200 mg, Cohort 1, 200 mg QD of Form B, Day 1, read-out: Cmax, Mean): 25.5 ng/mL | Cmax (200 mg, Cohort 1, 200 mg QD of Form B, Day 1, read-out: Cmax, Median): 27 ng/mL | Tmax (200 mg, Cohort 1, 200 mg QD of Form B, Day 1, read-out: Tmax, Mean): 4.17 h | Tmax (200 mg, Cohort 1, 200 mg QD of Form B, Day 1, read-out: Tmax, Median): 4 h | AUC(0-t) (200 mg, Compound I, 200 mg BID of Form B, Cohort 7, Day 1, read-out: AUClast (Mean)): 118 ng·h/mL | AUC(0-t) (200 mg, Compound I, 200 mg BID of Form B, Cohort 7, Day 1, read-out: AUClast (Median)): 125 ng·h/mL | Cmax (200 mg, Compound I, 200 mg BID of Form B, Cohort 7, Day 1, read-out: Cmax (Mean)): 17.3 ng/mL | Cmax (200 mg, Compound I, 200 mg BID of Form B, Cohort 7, Day 1, read-out: Cmax (Median)): 17.6 ng/mL | Tmax (200 mg, Compound I, 200 mg BID of Form B, Cohort 7, Day 1, read-out: Tmax (Mean)): 5 h | Tmax (200 mg, Compound I, 200 mg BID of Form B, Cohort 7, Day 1, read-out: Tmax (Median)): 5 h | AUC(0-t) (200 mg, Compound I, 200 mg BID of Form B, Cohort 8, Day 29, read-out: AUClast (Mean)): 197 ng·h/mL | AUC(0-t) (200 mg, Compound I, 200 mg BID of Form B, Cohort 8, Day 29, read-out: AUClast (Median)): 205 ng·h/mL | Cmax (200 mg, Compound I, 200 mg BID of Form B, Cohort 8, Day 29, read-out: Cmax (Mean)): 26.3 ng/mL | Cmax (200 mg, Compound I, 200 mg BID of Form B, Cohort 8, Day 29, read-out: Cmax (Median)): 30.5 ng/mL | Tmax (200 mg, Compound I, 200 mg BID of Form B, Cohort 8, Day 29, read-out: Tmax (Mean)): 6.67 h | Tmax (200 mg, Compound I, 200 mg BID of Form B, Cohort 8, Day 29, read-out: Tmax (Median)): 4 h | AUC(0-t) (200 mg, Compound I, 200 mg QD of Form B, Cohort 1, Day 29, read-out: AUClast (Mean)): 229 ng·h/mL | AUC(0-t) (200 mg, Compound I, 200 mg QD of Form B, Cohort 1, Day 29, read-out: AUClast (Median)): 227 ng·h/mL | Cmax (200 mg, Compound I, 200 mg QD of Form B, Cohort 1, Day 29, read-out: Cmax (Mean)): 20.4 ng/mL | Cmax (200 mg, Compound I, 200 mg QD of Form B, Cohort 1, Day 29, read-out: Cmax (Median)): 21.3 ng/mL | Tmax (200 mg, Compound I, 200 mg QD of Form B, Cohort 1, Day 29, read-out: Tmax (Mean)): 4.2 h | Tmax (200 mg, Compound I, 200 mg QD of Form B, Cohort 1, Day 29, read-out: Tmax (Median)): 4 h | AUC(0-t) (300 mg, Cohort 2, 300 mg QD of Form B, Day 1, upon exclusion of data for patient that vomited immediately after dosing, read-out: AUClast, Mean): 567 ng·h/mL
